Measurements taken from PMC8944975, “Secretin Receptor as a Target in Gastrointestinal Cancer: Expression Analysis and Ligand Development” (Biomedicines, 2022).
pEC50: −log10 of the molar value.

Biological target: human SCTR (Homo sapiens, UniProt P47872)
Experiment: agonist-induced β-arr2-GFP translocation
Type: cell-based
Parameters: expressed in transfected cells; host or cells: U2OS (human osteosarcoma), stably co-transfected with β-arrestin2-GFP
Conditions: Supplementary Tables S1 and S2, decimal comma, '-' not detectable (Figure 4); for β-arrestin2-GFP agonism efficacy: % of wild-type secretin; for pEC50: U2OS-SCTR/β-arr2-GFP cells, 20 min at 37 °C, mean of at least three independent experiments in duplicates, read-out: β-arrestin2-GFP agonism potency
Description: U2OS-SCTR/β-arr2-GFP: human osteosarcoma cell line U2OS (purchased from ATCC/LGC Standards, Wesel, Germany) were stably transfected with plasmids encoding SCTR (Homo sapiens) and the fusion protein β-arrestin2-green fluorescent protein (GFP) (Rattus norvegicus-Aequorea victoria) (β-arr2-GFP).
To evaluate reactivity of human SCTR exposed to different ligand variants, intracellular translocation of a fusion protein of β-arrestin2 and green fluorescent protein was utilized. For evaluation of activation, receptor-mediated recruitment of cytoplasmic β-arr2-GFP was monitored through its translocation into condensed intracellular vesicles. The extent of translocation events was quantified by determining the increasing granularization of the intracellular fluorescence utilizing an automated high-throughput microscope in combination with computational algorithms to estimate potency (EC50) and efficacy, thus characterizing ligand-SCTR interaction. U2OS-SCTR/β-arr2-GFP cells were seeded in 96-well cell culture plates to 60–80% confluence. On the following day, preceding stimulation, cells were incubated for one hour in serum-free medium. Ligand variants were applied as serial dilutions in assay buffer C1. After preincubation, supernatant was discarded by tapping plates overhead repeatedly. For stimulation, 50 µL of ligand dilution was applied per well in duplicates and incubated for 20 min at 37 °C. Successively, cells were fixed by applying 4% buffered formaldehyde (Herbeta Arzneimittel, Berlin, Germany) for 10 min at room temperature and consecutively permeabilized for 10 min at room temperature with 0.1% TritonX-100 in PBS, containing DAPI (4′,6-Diamidin-2-phenylindol, SigmaAldrich, Deisenhofen, Germany, 1 µg/mL) to counterstain nuclei. Microscopic images were recorded by an IN Cell Analyzer 1000 (GE Healthcare, Reading, UK) with 20× magnification at 5 frames per well in a 96-well format. Image processing was performed with IN Cell Investigator software (GE Healthcare, Reading, UK), applying the provided granularity algorithm. The output of the analysis was indicated as vesicle area/cell and was utilized for calculation of concentration–response curves. Parameters derived from curve fitting included the concentration of half-maximal activity (EC50), and intrinsic activity. Intrinsic activity was normalized defining reaction to non-modified wild type secretin as the 100% curve maximum value.

human SCTR, sequence (P47872 23-440): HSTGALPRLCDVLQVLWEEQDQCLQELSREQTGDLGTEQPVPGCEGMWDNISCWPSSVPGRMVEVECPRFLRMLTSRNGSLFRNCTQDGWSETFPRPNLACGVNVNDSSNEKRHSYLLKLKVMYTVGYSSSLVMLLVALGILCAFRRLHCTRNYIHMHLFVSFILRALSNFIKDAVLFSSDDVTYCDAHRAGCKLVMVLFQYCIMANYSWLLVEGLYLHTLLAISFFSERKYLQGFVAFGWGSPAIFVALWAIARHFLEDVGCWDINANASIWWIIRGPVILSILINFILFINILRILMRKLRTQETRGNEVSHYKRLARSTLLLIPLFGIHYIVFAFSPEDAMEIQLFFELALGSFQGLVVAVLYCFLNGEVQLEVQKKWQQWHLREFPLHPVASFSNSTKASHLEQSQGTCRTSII

Row | Compound | β-arrestin2-GFP agonism efficacy | pEC50
1 | CC(C)C[C@H](NC(=O)CNC(=O)[C@H](CCC(N)=O)NC(=O)[C@H](CC(C)C)NC(=O)[C@H](CC(C)C)NC(=O)[C@H](CCCNC(=N)N)NC(=O)[C@H](CCC(N)=O)NC(=O)[C@H](CC(C)C)NC(=O)[C@H](CCCNC(=N)N)NC(=O)[C@H](C)NC(=O)CNC(=O)[C@H](CCC(=O)O)NC(=O)[C@H](CCCNC(=N)N)NC(=O)[C@H](CC(C)C)NC(=O)[C@H](CCCNC(=N)N)NC(=O)[C@H](CO)NC(=O)[C@H](CC(C)C)NC(=O)[C@H](CCC(=O)O)NC(=O)[C@H](CO)NC(=O)[C@@H](NC(=O)[C@H](Cc1ccccc1)NC(=O)[C@H](NC(=O)CNC(=O)[C@H](CC(=O)O)NC(=O)[C@H](CO)NC(=O)[C@@H](N)Cc1c[nH]cn1)[C@H](C)O)[C@@H](C)O)C(=O)N[C@H](C(=O)O)C(C)C [Peptide 89] | 102,97 % Sec | 
2 | CC(C)C[C@H](NC(=O)CNC(=O)[C@H](CCC(N)=O)NC(=O)[C@H](CC(C)C)NC(=O)[C@H](CC(C)C)NC(=O)[C@H](CCCNC(=N)N)NC(=O)[C@H](CCC(N)=O)NC(=O)[C@H](CC(C)C)NC(=O)[C@H](CCCNC(=N)N)NC(=O)[C@H](C)NC(=O)CNC(=O)[C@H](CCC(=O)O)NC(=O)[C@H](CCCNC(=N)N)NC(=O)[C@H](CC(C)C)NC(=O)[C@H](CCCNC(=N)N)NC(=O)[C@H](CO)NC(=O)[C@@H](CC(C)C)NC(=O)[C@H](CCC(=O)O)NC(=O)[C@H](CO)NC(=O)[C@@H](NC(=O)[C@H](Cc1ccccc1)NC(=O)[C@@H](NC(=O)CNC(=O)[C@H](CC(=O)O)NC(=O)[C@H](CO)NC(=O)[C@@H](N)Cc1c[nH]cn1)[C@@H](C)O)[C@@H](C)O)C(=O)N[C@H](C(=O)O)C(C)C [Peptide 94] | 94,17 % Sec | 
3 | HSDGTFTsELSRLREGARLQRLLQGLV [Peptide 92, D-amino acid substitution variant of human secretin] | 90,37 % Sec | 
4 | CC(C)C[C@H](NC(=O)CNC(=O)[C@H](CCC(N)=O)NC(=O)[C@H](CC(C)C)NC(=O)[C@H](CC(C)C)NC(=O)[C@H](CCCNC(=N)N)NC(=O)[C@H](CCC(N)=O)NC(=O)[C@H](CC(C)C)NC(=O)[C@H](CCCNC(=N)N)NC(=O)[C@H](C)NC(=O)[C@H](CC(C)C)NC(=O)[C@H](CCC(=O)O)NC(=O)[C@H](CCCNC(=N)N)NC(=O)[C@H](CC(C)C)NC(=O)[C@H](CCCNC(=N)N)NC(=O)[C@H](CO)NC(=O)[C@H](CC(C)C)NC(=O)[C@H](CCC(=O)O)NC(=O)[C@H](CO)NC(=O)[C@@H](NC(=O)[C@H](Cc1ccccc1)NC(=O)[C@@H](NC(=O)CNC(=O)[C@H](CC(=O)O)NC(=O)[C@H](CO)NC(=O)[C@@H](N)Cc1c[nH]cn1)[C@@H](C)O)[C@@H](C)O)C(=O)N[C@H](C(=O)O)C(C)C [Peptide 72] | 104,60 % Sec | 8.48
5 | CC(C)C[C@H](NC(=O)[C@H](CCCNC(=N)N)NC(=O)[C@H](C)NC(=O)CNC(=O)[C@H](CCC(=O)O)NC(=O)[C@H](CCCNC(=N)N)NC(=O)[C@H](CC(C)C)NC(=O)[C@H](CCCNC(=N)N)NC(=O)[C@H](CO)NC(=O)[C@H](CC(C)C)NC(=O)[C@H](CCC(=O)O)NC(=O)[C@H](CO)NC(=O)[C@@H](NC(=O)[C@H](Cc1ccccc1)NC(=O)[C@@H](NC(=O)CNC(=O)[C@H](CC(=O)O)NC(=O)[C@H](CO)NC(=O)[C@@H](N)Cc1c[nH]cn1)[C@@H](C)O)[C@@H](C)O)C(=O)N[C@@H](CCC(N)=O)C(=O)N[C@@H](CCCNC(=N)N)C(=O)N[C@@H](CC(C)C)C(=O)N[C@@H](CC(C)C)C(=O)N[C@@H](CCC(N)=O)C(=O)NCC(=O)N[C@@H](CC(C)C)C(=O)N1CCC[C@H]1C(=O)O [Peptide 85] | 100,47 % Sec | 8.28
6 | CC(C)C[C@H](NC(=O)CNC(=O)[C@H](CCC(N)=O)NC(=O)[C@H](CC(C)C)NC(=O)[C@H](CC(C)C)NC(=O)[C@H](CCCNC(=N)N)NC(=O)[C@H](CCC(N)=O)NC(=O)[C@H](CC(C)C)NC(=O)[C@H](CCCNC(=N)N)NC(=O)[C@H](C)NC(=O)CNC(=O)[C@H](CCC(=O)O)NC(=O)[C@H](CCCNC(=N)N)NC(=O)[C@H](CC(C)C)NC(=O)[C@H](CCCNC(=N)N)NC(=O)[C@H](CO)NC(=O)[C@H](CC(C)C)NC(=O)[C@@H](CCC(=O)O)NC(=O)[C@H](CO)NC(=O)[C@@H](NC(=O)[C@H](Cc1ccccc1)NC(=O)[C@@H](NC(=O)CNC(=O)[C@H](CC(=O)O)NC(=O)[C@H](CO)NC(=O)[C@@H](N)Cc1c[nH]cn1)[C@@H](C)O)[C@@H](C)O)C(=O)N[C@H](C(=O)O)C(C)C [Peptide 93] | 100,40 % Sec | 
7 | CC(C)C[C@H](NC(=O)CNC(=O)[C@H](CCC(N)=O)NC(=O)[C@H](CC(C)C)NC(=O)[C@H](CC(C)C)NC(=O)[C@H](CCCNC(=N)N)NC(=O)[C@H](CCC(N)=O)NC(=O)[C@H](CC(C)C)NC(=O)[C@H](CCCNC(=N)N)NC(=O)[C@H](C)NC(=O)CNC(=O)[C@H](CCC(=O)O)NC(=O)[C@H](CCCNC(=N)N)NC(=O)[C@H](CC(C)C)NC(=O)[C@H](CCCNC(=N)N)NC(=O)[C@H](CO)NC(=O)[C@H](CC(C)C)NC(=O)[C@H](CCC(=O)O)NC(=O)[C@H](CO)NC(=O)[C@@H](NC(=O)[C@H](Cc1ccccc1)NC(=O)[C@@H](NC(=O)CNC(=O)[C@@H](CC(=O)O)NC(=O)[C@H](CO)NC(=O)[C@@H](N)Cc1c[nH]cn1)[C@@H](C)O)[C@@H](C)O)C(=O)N[C@H](C(=O)O)C(C)C [Peptide 88] | 89,07 % Sec | 
8 | CC(C)C[C@H](NC(=O)[C@H](CCCNC(=N)N)NC(=O)[C@H](C)NC(=O)CNC(=O)[C@H](CCC(=O)O)NC(=O)[C@H](CCCNC(=N)N)NC(=O)[C@H](CC(C)C)NC(=O)[C@H](CCCNC(=N)N)NC(=O)[C@H](CO)NC(=O)[C@H](CC(C)C)NC(=O)[C@H](CCC(=O)O)NC(=O)[C@H](CO)NC(=O)[C@@H](NC(=O)[C@H](Cc1ccccc1)NC(=O)[C@@H](NC(=O)CNC(=O)[C@H](CC(=O)O)NC(=O)[C@H](CO)NC(=O)[C@@H](N)Cc1c[nH]cn1)[C@@H](C)O)[C@@H](C)O)C(=O)N[C@@H](CCC(N)=O)C(=O)N[C@@H](CCCNC(=N)N)C(=O)N[C@@H](CC(C)C)C(=O)N[C@@H](CC(C)C)C(=O)N[C@@H](CCC(N)=O)C(=O)N1CCC[C@H]1C(=O)N[C@@H](CC(C)C)C(=O)N[C@H](C(=O)O)C(C)C [Peptide 83] | 103,17 % Sec | 7.66
9 | CC(C)C[C@H](NC(=O)CNC(=O)[C@H](CCC(N)=O)NC(=O)[C@H](CC(C)C)NC(=O)[C@H](CC(C)C)NC(=O)[C@H](CCCNC(=N)N)NC(=O)[C@H](CCC(N)=O)NC(=O)[C@H](CC(C)C)NC(=O)[C@H](CCCNC(=N)N)NC(=O)[C@H](C)NC(=O)CNC(=O)[C@H](CC(=O)O)NC(=O)[C@H](CCCNC(=N)N)NC(=O)[C@H](CC(C)C)NC(=O)[C@H](CCCNC(=N)N)NC(=O)[C@H](CO)NC(=O)[C@H](CC(C)C)NC(=O)[C@H](CCC(=O)O)NC(=O)[C@H](CO)NC(=O)[C@@H](NC(=O)[C@H](Cc1ccccc1)NC(=O)[C@@H](NC(=O)CNC(=O)[C@H](CC(=O)O)NC(=O)[C@H](CO)NC(=O)[C@@H](N)Cc1c[nH]cn1)[C@@H](C)O)[C@@H](C)O)C(=O)N[C@H](C(=O)O)C(C)C [Peptide 69] | 111,23 % Sec | 8.34
10 | HSDGTFtSELSRLREGARLQRLLQGLV [Peptide 91, D-amino acid substitution variant of human secretin] | 98,33 % Sec | 
11 | CC(C)C[C@H](NC(=O)[C@H](CCCNC(=N)N)NC(=O)[C@H](C)NC(=O)CNC(=O)[C@H](CCC(=O)O)NC(=O)[C@H](CCCNC(=N)N)NC(=O)[C@H](CC(C)C)NC(=O)[C@H](CCCNC(=N)N)NC(=O)[C@H](CO)NC(=O)[C@H](CC(C)C)NC(=O)[C@H](CCC(=O)O)NC(=O)[C@H](CO)NC(=O)[C@@H](NC(=O)[C@H](Cc1ccccc1)NC(=O)[C@@H](NC(=O)CNC(=O)[C@H](CC(=O)O)NC(=O)[C@H](CO)NC(=O)[C@@H](N)Cc1c[nH]cn1)[C@@H](C)O)[C@@H](C)O)C(=O)N[C@@H](CCC(N)=O)C(=O)N[C@@H](CCCNC(=N)N)C(=O)N[C@@H](CC(C)C)C(=O)N[C@@H](CC(C)C)C(=O)N[C@@H](CCC(N)=O)C(=O)NCC(=O)N[C@H](CC(C)C)C(=O)N[C@H](C(=O)O)C(C)C [Peptide 95] | 101,90 % Sec | 
